# Reference: patent US7531553B2, “Heterocyclic compounds and methods of use” (Amgen Inc., priority 2003, dated 2009)
# Tested on: Human Umbilical Vein Endothelial cells
# Assay: HUVEC proliferation assay (VEGF-stimulated)
# Type: cell-based
# Settings: VEGF 50 ng/mL final, 72 h incubation, CyQuant dye, read-out: inhibited VEGF-stimulated HUVEC proliferation at a level (IC50)
# Method: Human Umbilical Vein Endothelial cells are purchased from Clonetics, Inc., as cryopreserved cells harvested from a pool of donors. These cells, at passage 1, are thawed and expanded in EBM-2 complete medium, until passage 2 or 3. The cells are trypsinized, washed in DMEM+10% FBS+antibiotics, and spun at 1000 rpm for 10 min. Prior to centrifugation of the cells, a small amount is collected for a cell count. After centrifugation, the medium is discarded, and the cells are resuspended in the appropriate volume of DMEM+10% FBS+antibiotics to achieve a concentration of 3×10^5 cells/mL. Another cell count is performed to confirm the cell concentration. The cells are diluted to 3×10^4 cells/mL in DMEM+10% FBS+antibiotics, and 100 μL of cells are added to a 96-well plate. The cells are incubated at 37° C. for 22 h.
# Prior to the completion of the incubation period, compound dilutions are prepared. Five-point, five-fold serial dilutions are prepared in DMSO, at concentrations 400-fold greater than the final concentrations desired. 2.5 μL of each compound dilution are diluted further in a total of 1 mL DMEM+10% FBS+antibiotics (400× dilution). Medium containing 0.25% DMSO is also prepared for the 0 μM compound sample. After 22-h, the medium is removed from the cells, and 100 μL of each compound dilution is added. The cells are incubated at 37° C. for 2-3 h.
# During the compound pre-incubation period, the growth factors are diluted to the appropriate concentrations. Solutions of DMEM+10% FBS+antibiotics, containing either VEGF or bFGF at the following concentrations: 50, 10, 2, 0.4, 0.08, and 0 ng/mL are prepared. For the compound-treated cells, solutions of VEGF at 550 ng/mL or bFGF at 220 ng/mL for 50 ng/mL or 20 ng/mL final concentrations, respectively, are prepared since 10 μL of each will be added to the cells (110 μL final volume). At the appropriate time after adding the compounds, the growth factors are added. VEGF is added to one set of plates, while bFGF is added to another set of plates. For the growth factor control curves, the media on wells B4-G6 of plates 1 and 2 are replaced with media containing VEGF or bFGF at the varying concentrations (50-0 ng/mL). The cells are incubated at 37° C. for an additional 72 h.
# At the completion of the 72 h incubation period, the medium is removed, and the cells are washed twice with PBS. After the second wash with PBS, the plates are tapped gently to remove excess PBS, and the cells are placed at −70° C. for at least 30 min. […] Raw data are collected and analyzed using a 4-parameter fit equation in XLFit. IC50 values are then determined.
row,SMILES,IC50 [µM]
1,"COc1cc2nccc(Oc3ccc4oc(Nc5ccc(Cl)c(OC[C@@H]6CCCN6C)c5)nc4c3)c2cc1OC [Example 259, S-[4-Chloro-3-(1-methylpyrrolidin-2-ylmethoxy)-phenyl]-[5-(6,7-dimethoxyquinolin-4-yloxy)-benzoxazol-2-yl]-amine]",< 0.1
2,"COc1cc2ncnc(Oc3ccc4oc(Nc5ccc(Cl)c(OC[C@@H]6CCCN6C)c5)nc4c3)c2cc1OC [Example 263, S-[4-Chloro-3-(1-methyl-pyrrolidin-2-ylmethoxy)-phenyl]-[5-(6,7-dimethoxy-quinazolin-4-yloxy)-benzoxazol-2-yl]-amine]",< 0.1
3,"CN(C)C1CCN(Cc2cc(Nc3nc4cc(Oc5ccnc6[nH]ccc56)ccc4o3)ccc2Cl)C1 (stereo not shown) [Example 264, [4-Chloro-3-(3-dimethylamino-pyrrolidin-1-ylmethyl)-phenyl]-[5-(1H-pyrrolo[2,3-b]pyridin-4-yloxy)-benzoxazol-2-yl]-amine]",< 0.1
4,"CN1CCC(COc2cc(Nc3nc4cc(Oc5ccnc6[nH]ccc56)ccc4o3)ccc2Cl)CC1 [Example 265, [4-Chloro-3-(1-methyl-piperidin-4-ylmethoxy)-phenyl]-[5-(1H-pyrrolo[2,3-b]pyridin-4-yloxy)-benzoxazol-2-yl]-amine]",< 0.1
